Patent publication US20240383846A1, “MERCAPTOACETOPHENONE AMINOHYDRAZONES, THEIR SALTS AND USES THEREOF” (priority 2021, published 2024)
Converted amounts (≈) assume the structure as drawn. Where two headings read alike, the source gives them in different places.

Key:
A. baumannii AB5075 = test: MIC by broth microdilution (CLSI) against A. baumannii AB5075; assay type: cell-based, Acinetobacter baumannii; settings: for MIC: Acinetobacter baumannii
Description: (§1) Table 1 summarizes the antibacterial activity of certain compounds, according to the present invention, as calculated by minimum inhibitory concentration (MIC) values against one multidrug resistant gram-positive strain (MRSA USA300), and one multidrug resistant gram-negative (Acinetobacter baumannii AB5075). The later bacterial strain is listed at the top of the WHO's critical priority list for antibiotic development. Preferred compounds, according to the present invention are example compounds of formulas 72, 74, and 75, and, in particular, example compound of formula 75.
(§2) The minimum inhibitory concentration (MIC) of tested compounds and control antibiotics was determined using the broth microdilution method according to the guidelines outlined by the Clinical and Laboratory Standards Institute (CLSI, Methods for Dilution Antimicrobial Susceptibility Tests for Bacteria That Grow Aerobically; Approved Standard. January 2012; Vol. Ninth Edition M07-A9. 32 No. 2.). Bacterial strains were grown aerobically overnight on tryptone soy agar plates at 37° C. Afterwards, a bacterial solution equivalent to 0.5 McFarland standard was prepared and diluted in cation-adjusted Mueller-Hinton broth (CAMHB) to achieve a bacterial concentration of about 5×10^5 CFU/mL and seeded in 96-well plates. Compounds and control drugs were added in the first row of the 96-well plates and serially diluted along the plates. Plates were then, incubated aerobically at 37° C. for 18-20 hours.

MRSA USA300 [1] = test: MIC by broth microdilution (CLSI) against MRSA USA300; assay type: cell-based, Staphylococcus aureus; settings: for MIC: Staphylococcus aureus, read-out: MRSA USA300 MIC
Description: as §1, §2

MRSA USA300 [2] = test: Multi-step resistance experiment, 14 consecutive passages; assay type: cell-based, Staphylococcus aureus
Procedure: A multi-step resistance experiment was conducted, with example compound of formula 75. Initially, the MICs of heptyl compound and rifampicin, as the control antibiotic, were determined against MRSA USA300 using the broth microdilution method. Then, the strain was subcultured for fourteen consecutive passages over two weeks, with increasing concentrations of the tested agents, to detect the shift in the MIC, if any.
Multi-step resistance testing was conducted as reported earlier (PLOS One, 12 (2017) e0182821). A broth microdilution assay was used to determine the MIC for the MRSA strain USA300 after being exposed for 14 consecutive passages to either the example compound of formula 75, or rifampicin, as a control antibiotic. Briefly, different concentrations of TBT4 and rifampicin were prepared in 10 mL Mueller-Hinton (MH) broth (0.125 to 32 μg/ml and 0.003 to 1024 μg/mL, respectively) and they were inoculated with 10 μL of an overnight culture of S. aureus strain USA300 and then incubated at 37° C., with shaking at 180 rpm, for 24 h. […] Resistance was classified as a greater than four-fold increase in the initial MIC (Antimicrob. Agents Chemother., 55 (2011) 1177-1181).

MRSA strain USA300 = test: Murine skin infection model, subcutaneous MRSA infection, topical treatment; assay type: in vivo; settings: mice, twice daily for four days; for bacterial counts from skin lesions compared with PJ group / appearance of skin lesions (visual comparison): 2% topical; for bacterial counts from skin lesions compared with PJ group: *p≤0.05; for appearance of skin lesions (visual comparison): vs petroleum jelly vehicle
Procedure: The effectiveness of certain compounds, according to the present invention, was assessed using a murine skin infection model, conducted as previously described (Tseng, C. W. et. al. Subcutaneous infection of methicillin resistant Staphylococcus aureus (MRSA), J. Vis. Exp., (2011) 2528). The effect of example compound of formula 75 was assessed against skin infection caused by methicillin-resistant Staphylococcus aureus (MRSA), the main causative agent of diabetic foot ulcer. Within 72 hours post-subcutaneous infection with MRSA strain USA300, the backs of the mice started showing evident lesions. At this point, treatment regimen started for the three groups of mice, for four days, twice daily, with petroleum jelly (PJ) or petroleum jelly with 2% example compound of formula 75 or 2% fusidic acid ointment (FA). […] The mice with plain vehicle (PJ) applied throughout the experiment had ulcerated lesions and visible skin damage with demarcated red prominent edges, as shown in FIG. 2A.

[3] = broth microdilution, CAMHB, 37° C., 18-20 hours
[4] = AB5075, broth microdilution, CAMHB, 37° C., 18-20 hours, read-out: A. baumannii AB5075 MIC
[5] = comparison of MIC values of Table 1
[6] = end of the experiment (fourteen passages)

| Molecule | MIC (A. baumannii AB5075; [4]) [µg/mL] | MIC (MRSA USA300 [1]; [3]) [µg/mL] | further results |
| --- | --- | --- | --- |
| CCCSc1ccc(/C(C)=N/NC(=N)N)cc1 [Example compound of formula 68] |  |  | A. baumannii AB5075 MIC (A. baumannii AB5075; [3]): No inhibition; MRSA USA300 MIC (MRSA USA300 [1]; [3]): No inhibition |
| CCCCSc1ccc(/C(C)=N/NC(=N)N)cc1 [Example compound of formula 69] | 16 | 8 |  |
| C=CCCSc1ccc(/C(C)=N/NC(=N)N)cc1 [Example compound of formula 70] | 32 | 32 |  |
| CCCCCSc1ccc(/C(C)=N/NC(=N)N)cc1 [Example compound of formula 71] | 16 | 8 |  |
| CCCCCCCCSc1ccc(/C(C)=N/NC(=N)N)cc1 [Example compound of formula 72] | 8 | 1 |  |
| CCCCCCCCCSc1ccc(/C(C)=N/NC(=N)N)cc1 [Example compound of formula 73] | 16 | 2 |  |
| CCCCCCSc1ccc(/C(C)=N/NC(=N)N)cc1 [Example compound of formula 74, 2-(1-(4-(Hexylthio)phenyl)ethylidene)hydrazine-1-carboximidamide] | 4 | 0.5 | potency against tested gram-negative pathogen (A. baumannii AB5075) relative to example compound of formula 75 (A. baumannii AB5075; [5]): four times less potent; potency against S. aureus USA300 relative to example compound of formula 75 (MRSA USA300 [1]; [5]): maintained the same potency |
| CCCCCCCSc1ccc(/C(C)=N/NC(=N)N)cc1 [Example compound of formula 75, 2-(1-(4-(Heptylthio)phenyl)ethylidene)hydrazine-1-carboximidamide] | 1 | 0.5 | increase in MIC against MRSA USA300 (MRSA USA300 [2]; eighth passage): 2 fold; increase in MIC against MRSA USA300 (MRSA USA300 [2]; [6]): remained stable till the end of the experiment; increase in MIC against MRSA USA300 (MRSA USA300 [2]; on the fifth passage): one-fold; decrease in bacterial loads recovered from skin lesions (MRSA strain USA300; 2% in petroleum jelly, topical): ~1 log cycle; reduction in bacterial loads recovered from skin lesions (MRSA strain USA300; 2% in petroleum jelly, topical): 90%; bacterial counts from skin lesions compared with PJ group (MRSA strain USA300): significantly lower than the counts obtained from the PJ group; appearance of skin lesions (visual comparison) (MRSA strain USA300): showed signs of lesion healing and better recovery |
| C/C(=N\NC(=N)N)c1ccc(SCC(C)C)cc1 [Example compound of formula 76] | 16 | 8 |  |
| C/C(=N\NC(=N)N)c1ccc(SCCC(C)C)cc1 [Example compound of formula 77] | 8 | 4 |  |
| CCC(CC)CSc1ccc(/C(C)=N/NC(=N)N)cc1 [Example compound of formula 78] |  |  | A. baumannii AB5075 MIC (A. baumannii AB5075; [3]): No inhibition; MRSA USA300 MIC (MRSA USA300 [1]; [3]): No inhibition |
| C/C(=N\NC(=N)N)c1ccc(SC2CCCC2)cc1 [Example compound of formula 79] | 16 | 8 |  |
| C/C(=N\NC(=N)N)c1ccc(SC2CCCCC2)cc1 [Example compound of formula 80] | 8 | 4 |  |
| C/C(=N\NC(=N)N)c1ccc(SCC2CCC2)cc1 [Example compound of formula 81] | 16 | 8 |  |
| C/C(=N\NC(=N)N)c1ccc(SCC2CCCCC2)cc1 [Example compound of formula 82] |  |  | A. baumannii AB5075 MIC (A. baumannii AB5075; [3]): No inhibition; MRSA USA300 MIC (MRSA USA300 [1]; [3]): No inhibition |
| C/C(=N\NC(=N)N)c1ccc(SCc2ccccc2)cc1 [Example compound of formula 83] | 16 | 4 |  |
| C/C(=N\NC(=N)N)c1ccc(SCCc2ccccc2)cc1 [Example compound of formula 84] | 8 | 2 |  |
| CN[C@H](CC(C)C)C(=O)N[C@H]1C(=O)N[C@@H](CC(N)=O)C(=O)N[C@H]2C(=O)N[C@H]3C(=O)N[C@H](C(=O)N[C@H](C(=O)O)c4cc(O)cc(O)c4-c4cc3ccc4O)[C@H](O)c3ccc(c(Cl)c3)Oc3cc2cc(c3O[C@@H]2O[C@H](CO)[C@@H](O)[C@H](O)[C@H]2O[C@H]2C[C@](C)(N)[C@H](O)[C@H](C)O2)Oc2ccc(cc2Cl)[C@H]1O [Vancomycin, reference compound] |  |  | MIC (A. baumannii AB5075; AB5075, read-out: A. baumannii AB5075 MIC): > 128 µg/mL; MIC (MRSA USA300 [1]): 1 µg/mL (≈ 0.69 µM) |
| CC(=O)O[C@H]1C[C@@]2(C)[C@@H](C[C@@H](O)[C@H]3[C@@]4(C)CC[C@@H](O)[C@@H](C)[C@@H]4CC[C@@]32C)/C1=C(\CCC=C(C)C)C(=O)O [fusidic acid, reference compound] |  |  | bacterial counts from skin lesions compared with PJ group (MRSA strain USA300): significantly lower than the counts obtained from the PJ group; appearance of skin lesions (visual comparison) (MRSA strain USA300): showed signs of lesion healing and better recovery |
| CO[C@H]1/C=C/O[C@@]2(C)Oc3c(C)c(O)c4c(O)c(c(/C=N/N5CCN(C)CC5)c(O)c4c3C2=O)NC(=O)/C(C)=C\C=C\[C@H](C)[C@H](O)[C@@H](C)[C@@H](O)[C@@H](C)[C@H](OC(C)=O)[C@@H]1C [rifampicin, reference compound] |  |  | increase in MIC against MRSA USA300 (MRSA USA300 [2]; eighth passage): 7 fold; increase in MIC against MRSA USA300 (MRSA USA300 [2]; [6]): 13 fold |
| Gentamycin [reference compound] |  |  | A. baumannii AB5075 MIC (A. baumannii AB5075; [3]): 1 µg/mL |
